The source of these data is patent US20230310445A1, “LOX ENZYME INHIBITING METHODS AND COMPOSITIONS” (ANOVIA BIOSCIENCES, INC., priority 2020, published 2023).

Data set [1] is described as follows: Permeability study in Caco-2 cell line. It is filed as in vitro ADME. Particulars: human; for efflux ratio at 2 h, 5 μM: Caco-2, pH 7.4; for Papp A→B at 2 h, 5 μM: Caco-2, apical to basolateral; for Papp A→B at 2 h, 5 μM / Papp B→A at 2 h, 5 μM: pH 7.4; for Papp B→A at 2 h, 5 μM: Caco-2, basolateral to apical. As to the method:
Caco-2 cell suspensions were dispensed into the inserts of the 96-well HTS Transwell plate and cultivated for 14-18 days. Transepithelial electrical resistance (TEER) across the monolayer was measured using Millicell Epithelial Volt-Ohm measuring system. The Caco-2 plate was then washed twice with pre-warmed HBSS (pH 7.4) and incubated at 37° C. for 30 minutes. To determine the rate of drug transport in the apical to basolateral direction. 5 μM test compound was added to the Transwell insert and the wells in the receiver plate were filled with HBSS (pH 7.4). To determine the rate of drug transport in the basolateral to apical direction, 5 μM test compound was added to the receiver plate wells and then the Transwell inserts were filled with HBSS (pH 7.4). The plates were incubated at 37° C. for 2 hours. 50 μL samples from donor sides and receiver sides were transferred to wells of a new 96-well plate followed by the addition of 4 volume of cold methanol containing internal standards (IS). Samples were centrifuged and the supernatant was used for LC-MS/MS analysis. After the incubation, residue solutions were removed from the Transwell plates, and Lucifer yellow (100 μM) solution was added to each Transwell insert, followed by filling the receiver wells with HBSS. The plates were incubated at 37° C. for 30 minutes. 80 μL samples were removed from the apical and basolateral wells and the fluorescence of Lucifer yellow was measured in a microplate reader with 485 nm excitation and 530 nm emission.

The nature of data set [2]: PK study following IV and PO administration in male CD1 mice. Further details: AUClast/D: unit: (ng*h/mL)/(mg/kg). Type of data set: in vivo, mouse. Particulars: for AUClast/D / CIobs / AUC(0-inf) / AUC(0-t) / C0 / half-life / MRT inf / Vd / Cmax / Tmax: plasma, mean of three mice; for CIobs: unit assumed; for F: PO 50 mg/kg versus IV 10 mg/kg; for AUC(0-inf) / AUC(0-t) / C0 / half-life / MRT inf / Vd / Cmax / Tmax: mouse; for MRT inf: read-out: MRTInf—obs; for Vd: read-out: Vss—obs. How it is done: The objective of this study was to determine the pharmacokinetic (PK) profile of LOX enzyme inhibiting compounds following IV and PO administrations in male CD1 mice.
Male CDT mice from a qualified provider were used for all studies. Mice were 6-8 weeks old at the time of the experiment (˜20-30 g body weight). All animals for IV & PO administration were fasted overnight and fed after 4 hours collection. The dose formulation was kept at room temperature no more than 2 hours.
Dose formulations were prepared fresh on the day of dosing and stored at ambient temperature. Dose formulations were as following: […]
Blood samples were collected from the dorsal metatarsal vein. Circa 0.03 mL were collected per time point and 0.3 mL at final time point via heart puncture. The blood samples were centrifuged at 4000 g for 5 minutes at 4° C. to obtain plasma and samples were immediately frozen in the upright position and stored at −75±15° C. prior to analysis.
Blood samples were collected at time points outlined in Table 12:
Acceptable time ranges for blood collection were as following: 5 min and 15 min: within +0.25 minute, 30 min, 1 hour, and 2 hours: within +2 minutes; 4 hours, 6 hours, 8 hours, and 24 hours: within +10 minutes.
Concentrations of LOX enzyme inhibiting compounds in the plasma were analyzed using a LC-MS/MS method. WinNonlin (Phoenix™, version 8.2) software was used for pharmacokinetic calculations. The following pharmacokinetic parameters were calculated, whenever possible from the plasma concentration versus time data:
IV administration: T1/2, C0, AUClast, AUCinf, MRTinf, Cl, Vss, Number of Points for Regression.
PO administration: T1/2, Cmax, Tmax, AUClast, AUCinf and F. Number of Points for Regression.
The pharmacokinetic data were described using descriptive statistics such as mean, standard deviation.
Results are outlined in Table 13 (IV), Table 14 (PO) and FIGS. 1-3. Data represent mean values from three mice.

Where [3] appears, read: Caco-2, pH 7.4, Caco-2, apical to basolateral, read-out: Recovery (%)AP-BL.
[4] abbreviates: Caco-2, pH 7.4, Caco-2, basolateral to apical, read-out: Recovery (%)BL-AP.

Structures are written as SMILES. Like-named read-outs stand apart in the source and are kept apart here.

For orientation: efflux ratio means a quotient of directional permeabilities that is used to spot active efflux. One may read the Papp A→B as how fast a substance crosses the layer from the apical side. What is called Papp B→A is how fast a substance crosses the layer from the basolateral side. Regarding `NCc1ccc(S(=O)(=O)N2C[C@H](C(=O)N3CCS(=O)(=O)CC3)C[C@@H](c3ccccc3)C2)s1.O=C(O)C(F)(F)F` (racemic) [Example 75B, trans-(1-((5-(Aminomethyl)thiophen-2-yl)sulfonyl)-5-phenylpiperidin-3-yl)(1,1-dioxidothiomorpholino)methanone 2,2,2-trifluoroacetate], in data set [1], the efflux ratio at 2 h, 5 μM amounted to 30.1; the Papp A→B at 2 h, 5 μM was determined as 0.4 ×10⁻⁶ cm/s; the Papp B→A at 2 h, 5 μM amounted to 12.1 ×10⁻⁶ cm/s. For the same compound, in data set [1] (setting [3]), the recovery at 2 h, 5 μM was 72.1%. The recovery at 2 h, 5 μM in data set [1] (setting [4]) turned out to be 83.5%.
As for `NCc1ccc(S(=O)(=O)N2C[C@H](C(=O)N3CCOCC3)C[C@H](c3ccccc3)C2)s1` [Example 13B, ((3R,5R)-1-((5-(aminomethyl)thiophen-2-yl)sulfonyl)-5-phenylpiperidin-3-yl)(morpholino)methanone], in data set [1], the efflux ratio at 2 h, 5 μM worked out at 24.5; the Papp A→B at 2 h, 5 μM came to 1.16 ×10⁻⁶ cm/s; the Papp B→A at 2 h, 5 μM was determined as 28.5 ×10⁻⁶ cm/s. Further, the recovery at 2 h, 5 μM in data set [1] (setting [3]) came to 76.8%. For the same compound, the recovery at 2 h, 5 μM in data set [1] (setting [4]) was 78.8%.
For orientation: AUC(0-inf) means total exposure, with the tail of the curve extrapolated. By AUC(0-t) is commonly meant the area under the concentration-time curve up to a stated or last time point. The term half-life denotes the time needed for the level to fall by half in the phase considered. As usually defined, the Cmax is the peak of the concentration-time curve. By Tmax is commonly meant the time at which the peak concentration occurs. In data set [2] (IV, 10 mg/kg), `CN(C)C(=O)N1C[C@@H](c2ccccc2)C[C@@H](S(=O)(=O)c2cccc(CN)c2)C1.O=C(O)C(F)(F)F` (racemic) [Example 74, cis-3-((3-(Aminomethyl)phenyl)sulfonyl)-N,N-dimethyl-5-phenylpiperidine-1-carboxamide 2,2,2-trifluoroacetate] had an AUClast/D of 196, a CIobs of 85.5 mL/min/kg, an area under the curve AUC(0-inf) of 1970 ng·h/mL and an AUC(0-t) of 1960 ng·h/mL. Moreover, in data set [2] (IV, 10 mg/kg), the C0 was 3590 ng/mL, the half-life is 53.4 min, the MRT inf turned out to be 41.5 min and the Vd came to 3.55 L/kg. Further, the F in data set [2] was found to be 90. In data set [2] (PO, 50 mg/kg), this compound displayed an AUClast/D of 138, an AUC(0-inf) of 8860 ng·h/mL, an AUC(0-t) of 8850 ng·h/mL and a Cmax of 5550 ng/mL. Also, in data set [2] (PO, 50 mg/kg), the Tmax worked out at 25 min, the half-life was 49.3 min and the MRT inf amounted to 74.4 min. In addition, in data set [1], the efflux ratio at 2 h, 5 μM came to 47.1; the Papp A→B at 2 h, 5 μM was 0.71 ×10⁻⁶ cm/s; the Papp B→A at 2 h, 5 μM was determined as 33.3 ×10⁻⁶ cm/s. Besides, the recovery at 2 h, 5 μM in data set [1] (setting [3]) was found to be 77.4%. Further, the recovery at 2 h, 5 μM in data set [1] (setting [4]) was 90.8%.
In data set [2] (IV, 10 mg/kg), `NCc1ccnc(S(=O)(=O)N2C[C@@H](C(=O)N3CCS(=O)(=O)CC3)C[C@@H](C3CCCCC3)C2)c1.O=C(O)C(F)(F)F` (racemic) [Example 146, cis-(1-((4-(Aminomethyl)pyridin-2-yl)sulfonyl)-5-cyclohexylpiperidin-3-yl)(1,1-dioxidothiomorpholino)methanone 2,2,2-trifluoroacetate] yielded an AUClast/D of 164, a CIobs of 103 mL/min/kg, an AUC(0-inf) of 1650 ng·h/mL and an AUC(0-t) of 1640 ng·h/mL. Further, in data set [2] (IV, 10 mg/kg), the C0 was 6150 ng/mL, the half-life is 287 min, the MRT inf was 51 min and the Vd was determined as 5.12 L/kg. Moreover, the F in data set [2] stood at 7.2. In data set [2] (PO, 50 mg/kg), this compound came in with an AUClast/D of 11.3, an AUC(0-inf) of 590 ng·h/mL, an AUC(0-t) of 563 ng·h/mL and a Cmax of 503 ng/mL. Also, in data set [2] (PO, 50 mg/kg), the Tmax came to 15 min, the half-life is 337 min and the MRT inf was 221 min.
Turning to `CS(=O)(=O)N1CCN(C(=O)[C@H]2C[C@@H](c3ccccc3F)CN(S(=O)(=O)c3ccc(CN)s3)C2)CC1.O=C(O)C(F)(F)F` (racemic) [Example 91, cis-(1-((5-(Aminomethyl)thiophen-2-yl)sulfonyl)-5-(2-fluorophenyl)piperidin-3-yl)(4-(methylsulfonyl)piperazin-1-yl)methanone 2,2,2-trifluoroacetate], in data set [1], the efflux ratio at 2 h, 5 μM amounted to 138; the Papp A→B at 2 h, 5 μM was found to be 0.11 ×10⁻⁶ cm/s; the Papp B→A at 2 h, 5 μM was 15.6 ×10⁻⁶ cm/s. Besides, the recovery at 2 h, 5 μM in data set [1] (setting [3]) was 68.6%. Moreover, in data set [1] (setting [4]), the recovery at 2 h, 5 μM was determined as 78.2%.
The corresponding values for `CS(=O)(=O)[C@H]1C[C@@H](S(=O)(=O)c2cccc(CN)c2)CN(c2ccccc2)C1` (racemic) [Example 23, cis-(3-((-5-(Methylsulfonyl)-1-phenylpiperidin-3-yl)sulfonyl)phenyl)methanamine] are 61.4, 0.38 ×10⁻⁶ cm/s, 23.3 ×10⁻⁶ cm/s, 86.5% and 103%.
